Test [1] has as its target T1, wild type (WT) South African HIV-1 subtype C protease (HIV-1 PR) (Human immunodeficiency virus type 1 group M subtype C, UniProt O12158). The test is described as follows: Enzyme inhibition assay with chromogenic substrate (Dixon method), wild type PR. The test is classed as biochemical. The conditions noted are these: for Relative Resistance: WT, Ki of mutant/Ki of WT. On the procedure: (§1) HIV-1 PR activity was measured by adding a purified enzyme (100–300 nM) to 300 µM of the chromogenic substrate Lys-Ala-Arg-Val-Nle-p-nitro-Phe-Glu-Ala-Nle amide (Sigma-Aldrich, St. Louis, MO, USA) dissolved in buffer D (50 mM sodium acetate buffer containing 100 mM NaCl (pH 5.0)) at 37 °C. The change in absorbance upon hydrolysis of the substrate by HIV-1 PR was monitored, and an extinction coefficient of 1800 M-1 cm-1 at a wavelength of 300 nm was used to convert the absorbance change to reaction rates. […] The data obtained were analyzed by plotting the reciprocal of substrate hydrolysis against substrate concentration (Lineweaver–Burk method to determine the Km and Kcat) and inhibitor concentration (Dixon method to determine the Ki) respectively.

The target of test [2] is T2, HIV-1 PR MUT-1 (M46I, I54V, V82A, L10F) (Human immunodeficiency virus type 1 group M subtype C, UniProt O12158, I538V/L494F/M530I/V566A). Put plainly: biochemical. On the procedure:
as §1

The target of test [3] is HIV-1 PR MUT-2 (M46I, I54V, L76V, V82A, L33F, L10F) (Human immunodeficiency virus type 1 group M subtype C, UniProt O12158, I538V/L494F/L517F/L560V/M530I/V566A). Put plainly: biochemical. On the procedure:
as §1

Test [4] addresses T3, HIV-1 PR MUT-3 (M46I, I54V, L76V, V82A, L90M, F53L) (Human immunodeficiency virus type 1 group M subtype C, UniProt O12158, F537L/I538V/L560V/L574M/M530I/V566A). The test is described as follows: biochemical. On the procedure:
as §1

Test [5] deals with T1, wild type (WT) South African HIV-1 subtype C protease (HIV-1 PR). The test is described as follows: Intrinsic tryptophan fluorescence quenching assay, wild type PR. The test is classed as binding. On the procedure: (§2) Fluorescent spectra were recorded as described previously using a PerkinElmer LS 55 spectrometer with a 1.0 cm quartz cell (PerkinElmer, Waltham, MA, USA) and connected to a thermostat-controlled bath. This assay utilized the intrinsic tryptophan (Trp) fluorescence by causing the excitation of the π–π* transition in the tryptophan residues. Two Trp residues are found at positions 6 and 42 in each monomer of HIV-1 PR. Trp 6 is located close to the active site, and Trp 42 is found close to the flap of the HIV-1 PR. The position of the Trp residues on the enzyme surface makes them good probes in monitoring changes in the HIV-1 PR tertiary structure. The protein was excited at 295 nm, and fluorescence measurements were recorded from 300 to 420 nm at room temperature (25 °C). The excitation and emission slit widths were set at 5 nm, and the fluorescence spectra were acquired at 500 nm/min. The obtained fluorescence data was corrected and smoothened by running control samples of the buffer. For the fluorescence quenching study, […] of HIV-1 PR and varying inhibitor concentration from 10 to 500 nM were used. For every reaction, a new enzyme solution was used. The decrease in intrinsic Trp fluorescence (F0–F) at each concentration of inhibitor was fitted to the equation (F0–F) = ΔFmax/(1 + (Ki/[I]) to determine Ki and ΔFmax values using the Origin(Pro), 2019 (OriginLab Corporation, Northampton, MA, USA). The Stern–Volmer quenching constants (Ksv) were also calculated by fitting the data into the equation F0/F = 1 + Ksv (Q). The Stern–Volmer constant reports the accessibility of fluorophores to a quencher and the solvent accessibility of the fluorophore. Thus, it is an essential tool that can be used to probe the conformational changes around a fluorophore in proteins. […] The inner filter effect was corrected by using the formula Fc = Fantilog[(Aex + Aem)/2], where Fc is the corrected measurement and F is the measured fluorescence intensities, respectively, Aex is solution absorbance at the excitation, and Aem emission wavelengths.

The target in test [6] is T4, HIV-1 PR MUT-2 (M46I, I54V, L76V, V82A, L10F, L33F) (Human immunodeficiency virus type 1 group M subtype C, UniProt O12158, I538V/L494F/L517F/L560V/M530I/V566A).
T4 construct: The HIV-1 PR is a 99 amino acid homodimer; made in house; host or cells: Escherichia coli (NEBExpress)
T4 sequence (O12158 485-583 L494F/L517F/M530I/I538V/L560V/V566A): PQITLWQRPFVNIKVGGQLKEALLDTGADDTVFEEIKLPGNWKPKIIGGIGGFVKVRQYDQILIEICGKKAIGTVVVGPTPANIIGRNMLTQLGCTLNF
Put plainly: Intrinsic tryptophan fluorescence quenching assay, MUT-2 PR. The test is classed as binding, HIV-1 subtype C. The conditions noted are these: MUT-2 HIV-1 PR; for Ki: tryptophan fluorescence, 25 °C. The procedure:
as §2, with “used.” for “used. The decrease in intrinsic Trp fluorescence (F0–F) at each concentration of inhibitor was fitted to the equation (F0–F) = ΔFmax/(1 + (Ki/[I]) to determine Ki and ΔFmax values using the Origin(Pro), 2019 (OriginLab Corporation, Northampton, MA, USA). The Stern–Volmer quenching constants (Ksv) were also calculated by fitting the data into the equation F0/F = 1 + Ksv (Q). The Stern–Volmer constant reports the accessibility of fluorophores to a quencher and the solvent accessibility of the fluorophore. Thus, it is an essential tool that can be used to probe the conformational changes around a fluorophore in proteins.”

Test [7] concerns the target wild type South African HIV-1 subtype C PR. To be noted: previous study ref 71; cited from earlier work.
Test [8] addresses wild-type subtype B HIV-1 PR. The conditions noted are these: cited from earlier work.
The target of test [9] is T2, HIV-1 PR MUT-1 (M46I, I54V, V82A, L10F). The test is described as follows: biochemical. In kind it is binding, HIV-1 subtype C. Also noted: The HIV-1 PR is a 99 amino acid homodimer; made in house; host or cells: Escherichia coli (NEBExpress). To be noted: for Stern–Volmer quenching constant (Ksv): MUT-1 HIV-1 PR. On the procedure:
as §2, with “used.” for “used. The decrease in intrinsic Trp fluorescence (F0–F) at each concentration of inhibitor was fitted to the equation (F0–F) = ΔFmax/(1 + (Ki/[I]) to determine Ki and ΔFmax values using the Origin(Pro), 2019 (OriginLab Corporation, Northampton, MA, USA). The Stern–Volmer quenching constants (Ksv) were also calculated by fitting the data into the equation F0/F = 1 + Ksv (Q). The Stern–Volmer constant reports the accessibility of fluorophores to a quencher and the solvent accessibility of the fluorophore. Thus, it is an essential tool that can be used to probe the conformational changes around a fluorophore in proteins.”

Test [10] concerns the target T3, HIV-1 PR MUT-3 (M46I, I54V, L76V, V82A, L90M, F53L). Put plainly: biochemical. The test is classed as binding, HIV-1 subtype C. Also noted: The HIV-1 PR is a 99 amino acid homodimer; made in house; host or cells: Escherichia coli (NEBExpress). The conditions noted are these: for Stern–Volmer quenching constant (Ksv): MUT-3 HIV-1 PR. The procedure:
as §2, with “used.” for “used. The decrease in intrinsic Trp fluorescence (F0–F) at each concentration of inhibitor was fitted to the equation (F0–F) = ΔFmax/(1 + (Ki/[I]) to determine Ki and ΔFmax values using the Origin(Pro), 2019 (OriginLab Corporation, Northampton, MA, USA). The Stern–Volmer quenching constants (Ksv) were also calculated by fitting the data into the equation F0/F = 1 + Ksv (Q). The Stern–Volmer constant reports the accessibility of fluorophores to a quencher and the solvent accessibility of the fluorophore. Thus, it is an essential tool that can be used to probe the conformational changes around a fluorophore in proteins.”

Test [11] relates to HIV-1 PR MUT-1 (M46I, I54V, V82A, L10F). The test is described as follows: biochemical. To be noted: MUT-1; Ki of mutant/Ki of WT. The procedure:
as §1

The subject of test [12] is HIV-1 PR MUT-2 (M46I, I54V, L76V, V82A, L33F, L10F). Put plainly: biochemical. To be noted: MUT-2; Ki of mutant/Ki of WT. On the procedure: as §1
For test [13], the system named is HIV-1 PR MUT-3 (M46I, I54V, L76V, V82A, L90M, F53L). The test is described as follows: biochemical. The conditions noted are these: MUT-3; Ki of mutant/Ki of WT. On the procedure:
as §1

The target in test [14] is multidrug-resistant forms of HIV-1 subtype B PR harboring numerous major and minor mutations. The conditions noted are these: cited from earlier work.

Like-named read-outs stand apart in the source and are kept apart here.

T2 sequence (O12158 485-583 L494F/M530I/I538V/V566A): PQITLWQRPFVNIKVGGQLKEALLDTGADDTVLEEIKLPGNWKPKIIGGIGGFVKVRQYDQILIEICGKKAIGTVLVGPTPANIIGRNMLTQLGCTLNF
T1 sequence (O12158 485-583): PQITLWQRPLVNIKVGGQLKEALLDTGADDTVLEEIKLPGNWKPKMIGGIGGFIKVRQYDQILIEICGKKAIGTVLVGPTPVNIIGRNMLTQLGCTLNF
T3 sequence (O12158 485-583 M530I/F537L/I538V/L560V/V566A/L574M): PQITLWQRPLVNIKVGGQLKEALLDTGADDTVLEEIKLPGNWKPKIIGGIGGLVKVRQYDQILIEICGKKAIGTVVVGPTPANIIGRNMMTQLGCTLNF
Chain of HIV-1 PR MUT-2 (M46I, I54V, L76V, V82A, L33F, L10F) (Human immunodeficiency virus type 1 group M subtype C, UniProt O12158, I538V/L494F/L517F/L560V/M530I/V566A) (O12158 485-583 L494F/L517F/M530I/I538V/L560V/V566A): as the sequence (O12158 485-583 L494F/L517F/M530I/I538V/L560V/V566A) above

As a reminder, the Ki is a dissociation constant, usually derived from enzyme kinetics or from competition with a known ligand. Regarding `CC(C)CN(C[C@@H](O)[C@H](Cc1ccccc1)NC(=O)O[C@H]1CO[C@H]2OCC[C@H]21)S(=O)(=O)c1ccc(N)cc1` [DRV, darunavir], the Ki in test [1] turned out to be 1.58 ± 0.11 nM; in test [2], 5.53 ± 0.09 nM; in test [3], 7.8 ± 0.71 nM; in test [4], 11.5 ± 1.09 nM; in [5], 8.12 nM; in test [6], 32.9 nM. Moreover, the Ki in test [7] is 1.4 ± 0.2 nM; in test [8] (wild type subtype B HIV-1 PR), roughly 0.005 nM; in [9], 26.3 nM; in test [10] it was 44.7 nM. Further, the “Relative Resistance” value in [1] was found to be 1.00. Moreover, the “Stern–Volmer quenching constant (Ksv)” value in test [5] (WT HIV-1 PR) came out at 0.030 nM⁻¹; in test [6], 0.009 nM⁻¹; in test [9], 0.01 nM⁻¹; in [10] it was 0.005 nM⁻¹.
In the case of `Cc1cccc(C)c1OCC(=O)N[C@@H](Cc1ccccc1)[C@@H](O)C[C@H](Cc1ccccc1)NC(=O)[C@H](C(C)C)N1CCCNC1=O` [LPV, lopinavir], the Ki in test [1] amounted to 2.13 ± 0.23 nM; in test [2], 46.5 ± 0.14 nM; in test [3], 52.6 ± 0.65 nM; in [4], 76.26 ± 0.09 nM; in test [5] it was 17.2 nM; in [6] it was 79.5 nM. The Ki is 2.1 ± 0.2 nM in test [7]; roughly 0.02 nM in test [8] (wild-type subtype B HIV-1 PR); 0.44 to 260 nM in test [14]; 54.7 nM in test [9]; 113 nM in test [10]. Also, the “Relative Resistance” value in test [1] worked out at 1.00; in test [11], 21.83; in test [12] it was 24.71; in test [13] it was 35.80. Moreover, the “Stern–Volmer quenching constant (Ksv)” value in test [5] amounted to 0.02 nM⁻¹; in test [6], 0.004 nM⁻¹; in test [9] it was 0.004 nM⁻¹; in [10], 0.003 nM⁻¹.
